Results published in PubChem BioAssay (NCI).
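Exposure lasted 48 hours, with cells grown in 96-well plates and compounds tested at five concentrations. GI50 marks 50% less growth. Definition used: TGI = concentration required for complete inhibition of growth.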

Legend:
Assay in all cases: NCI tumour cell line growth inhibition, 48 h
SK-OV-3 ovarian = test system: SK-OV-3 ovarian
RXF 393 renal = test system: RXF 393 renal
HL-60(TB) leukemia = test system: HL-60(TB) leukemia
MCF7 breast = test system: MCF7 breast
KM12 colon = test system: KM12 colon
PC-3 prostate = test system: PC-3 prostate
RPMI-8226 leukemia = test system: RPMI-8226 leukemia
UACC-257 melanoma = test system: UACC-257 melanoma
SK-MEL-2 melanoma = test system: SK-MEL-2 melanoma
HCT-116 colon = test system: HCT-116 colon
SNB-19 CNS = test system: SNB-19 CNS
OVCAR-5 ovarian = test system: OVCAR-5 ovarian
SF-539 CNS = test system: SF-539 CNS
A498 renal = test system: A498 renal
K-562 leukemia = test system: K-562 leukemia
NCI-H460 lung = test system: NCI-H460 lung
CCRF-CEM leukemia = test system: CCRF-CEM leukemia
NCI-H23 lung = test system: NCI-H23 lung
SF-295 CNS = test system: SF-295 CNS
NCI-H522 lung = test system: NCI-H522 lung
SK-MEL-28 melanoma = test system: SK-MEL-28 melanoma
HOP-92 NSCLC = test system: HOP-92 NSCLC
U251 CNS = test system: U251 CNS
HCT-15 colon = test system: HCT-15 colon
HOP-62 NSCLC = test system: HOP-62 NSCLC
ACHN renal = test system: ACHN renal
UO-31 renal = test system: UO-31 renal
MDA-MB-468 breast = test system: MDA-MB-468 breast
NCI-H226 lung = test system: NCI-H226 lung
MDA-MB-231 breast = test system: MDA-MB-231 breast
SN12C renal = test system: SN12C renal
OVCAR-4 ovarian = test system: OVCAR-4 ovarian
HCC-2998 colon = test system: HCC-2998 colon
HT29 colon = test system: HT29 colon
OVCAR-3 ovarian = test system: OVCAR-3 ovarian
IGROV1 ovarian = test system: IGROV1 ovarian
SR leukemia = test system: SR leukemia
OVCAR-8 ovarian = test system: OVCAR-8 ovarian
CAKI-1 renal = test system: CAKI-1 renal
UACC-62 melanoma = test system: UACC-62 melanoma
M14 melanoma = test system: M14 melanoma
SW-620 colon = test system: SW-620 colon
SK-MEL-5 melanoma = test system: SK-MEL-5 melanoma
LOX IMVI melanoma = test system: LOX IMVI melanoma
DU-145 prostate = test system: DU-145 prostate
SF-268 CNS = test system: SF-268 CNS
BT-549 breast = test system: BT-549 breast
A549 NSCLC = test system: A549 NSCLC
MALME-3M melanoma = test system: MALME-3M melanoma
TK-10 renal = test system: TK-10 renal
MDA-MB-435 = test system: MDA-MB-435
T-47D breast = test system: T-47D breast
MOLT-4 leukemia = test system: MOLT-4 leukemia
786-0 renal = test system: 786-0 renal
SNB-75 CNS = test system: SNB-75 CNS
COLO 205 colon = test system: COLO 205 colon
HS 578T breast = test system: HS 578T breast
EKVX NSCLC = test system: EKVX NSCLC

## COc1ccc([C@H]2C(C(=O)c3ccc(Cl)cc3)C3(N[C@@H]2c2ccccc2)C(=O)Nc2ccc(Cl)cc23)cc1 (stereo partly specified)
SK-OV-3 ovarian
  GI50: 11.5 µM
  TGI: 38.4 µM
RXF 393 renal
  GI50: 2.93 µM
  TGI: 12 µM
HL-60(TB) leukemia
  GI50: 4.1 µM
  TGI: 22.2 µM
MCF7 breast
  GI50: 1.91 µM
  TGI: 13.1 µM
KM12 colon
  GI50: 2.44 µM
  TGI: 12.8 µM
PC-3 prostate
  GI50: 1.99 µM
  TGI: 10.6 µM
RPMI-8226 leukemia
  GI50: 3.62 µM
  TGI: 48 µM
UACC-257 melanoma
  GI50: 6.69 µM
  TGI: 18.6 µM
SK-MEL-2 melanoma
  GI50: 6.16 µM
  TGI: 13.4 µM
HCT-116 colon
  GI50: 2.62 µM
  TGI: 10.5 µM
SNB-19 CNS
  GI50: 6.5 µM
  TGI: 46.5 µM
OVCAR-5 ovarian
  GI50: 6.48 µM
  TGI: 14.1 µM
SF-539 CNS
  GI50: 7.28 µM
  TGI: 16.6 µM
A498 renal
  GI50: 8.68 µM
  TGI: 22.4 µM
K-562 leukemia
  GI50: 2.31 µM
  TGI: 57.5 µM
NCI-H460 lung
  GI50: 2.5 µM
  TGI: 9.26 µM
CCRF-CEM leukemia
  GI50: 3.32 µM
  TGI: 25.1 µM
NCI-H23 lung
  GI50: 6.19 µM
  TGI: 16.2 µM
SF-295 CNS
  GI50: 3.08 µM
  TGI: 13.1 µM
NCI-H522 lung
  GI50: 5.24 µM
  TGI: 14.3 µM
SK-MEL-28 melanoma
  GI50: 6.47 µM
  TGI: 13.6 µM
HOP-92 NSCLC
  GI50: 2.38 µM
  TGI: 10.7 µM
U251 CNS
  GI50: 5.5 µM
  TGI: 13 µM
HCT-15 colon
  GI50: 3.86 µM
  TGI: 12.7 µM
HOP-62 NSCLC
  GI50: 6.75 µM
  TGI: 14.5 µM
ACHN renal
  GI50: 2.32 µM
  TGI: 17.9 µM
UO-31 renal
  GI50: 1.74 µM
  TGI: 10.8 µM
MDA-MB-468 breast
  GI50: 7.07 µM
  TGI: 19.8 µM
NCI-H226 lung
  GI50: 6.64 µM
  TGI: 14.8 µM
MDA-MB-231 breast
  GI50: 4.87 µM
  TGI: 12.2 µM
SN12C renal
  GI50: 3 µM
  TGI: 10.4 µM
OVCAR-4 ovarian
  GI50: 5.77 µM
  TGI: 27.1 µM
HCC-2998 colon
  GI50: 2.09 µM
  TGI: 8.15 µM
HT29 colon
  GI50: 2.2 µM
  TGI: 8.71 µM
OVCAR-3 ovarian
  GI50: 6.39 µM
  TGI: 23.1 µM
IGROV1 ovarian
  GI50: 3.54 µM
  TGI: 13.7 µM
SR leukemia
  GI50: 2.08 µM
  TGI: 20.5 µM
OVCAR-8 ovarian
  GI50: 4.98 µM
  TGI: 14 µM
CAKI-1 renal
  GI50: 1.53 µM
  TGI: 15.1 µM
UACC-62 melanoma
  GI50: 2.13 µM
  TGI: 9.36 µM
M14 melanoma
  GI50: 2.99 µM
  TGI: 12.7 µM
SW-620 colon
  GI50: 5.33 µM
  TGI: 21.5 µM
SK-MEL-5 melanoma
  GI50: 9.38 µM
  TGI: 17.9 µM
LOX IMVI melanoma
  GI50: 2.75 µM
  TGI: 14 µM
DU-145 prostate
  GI50: 7.91 µM
  TGI: 27 µM
SF-268 CNS
  GI50: 3.21 µM
  TGI: 38 µM
BT-549 breast
  GI50: 6.91 µM
  TGI: 14.6 µM
A549 NSCLC
  GI50: 2.4 µM
  TGI: 13.7 µM
MALME-3M melanoma
  GI50: 8.38 µM
  TGI: 16.1 µM
TK-10 renal
  GI50: 7.42 µM
  TGI: 19.8 µM
MDA-MB-435
  GI50: 4.02 µM
  TGI: 14.5 µM
T-47D breast
  GI50: 2.61 µM
  TGI: 13.4 µM
MOLT-4 leukemia
  GI50: 1.95 µM
  TGI: 56.6 µM
786-0 renal
  GI50: 5.11 µM
  TGI: 20 µM
SNB-75 CNS
  GI50: 2.82 µM
  TGI: 27.2 µM
COLO 205 colon
  GI50: 6.72 µM
  TGI: 14.5 µM
HS 578T breast
  GI50: 7.49 µM
  TGI: 24.9 µM
EKVX NSCLC
  GI50: 6.43 µM
  TGI: 30.7 µM
